According to US20090227503A1, “PARATHYROID HORMONE TREATMENT FOR ENHANCED ALLOGRAFT AND TISSUE-ENGINEERED RECONSTRUCTION OF BONE DEFECTS” (UNIVERSITY OF ROCHESTER, priority 2008, published 2009):

What was measured:
[1] = system: contralateral intact femurs; experiment: Torsion testing of contralateral intact femurs (Example 4); assay type: in vivo, mice
Method: Four-mm long bone allografts were harvested from donor mice, and were processed and implanted into intecalary defects 195 in the femur of other mice and secured in place using a stainless steel intramedullary pin 190, as shown in FIG. 13. One week after surgery, daily injections of 40 μg/kg hrPTH (1-34) (Lilly, Inc., Indianapolis, Ind.) were initiated in half of the mice, while the others received injections of saline control. Weekly x-rays were taken to monitor progression (Faxitron X-Ray LLC, Wheeling, Ill.).
One cohort of the study groups used 14 mice from each treatment (PTH and control) for imaging and mechanical material testing and were sacrificed 6 weeks after surgery. Each femur was harvested by disarticulating the hip and knee and removing the intramedullary stainless-steel pin. Specimens were moistened with saline and frozen at −20° C. until thawed for micro-CT imaging and torsion testing. Specimens were scanned at […] isotropic resolution using the Scanco VivaCT 40 (Scanco Medical AG, Bassersdorf, Switzerland). From these 3D images, the graft and callus bone volumes (BVGraft, BVCallus) were measured by manual segmentation, followed by standardized thresholding at a grayscale corresponding to 750 mgHA/cm^3. The cross-sectional polar moment of inertias (PMI) were computed for each slice throughout the grafted region and the maximum, minimum and average PMI (PMIMax, PMIMin, PMIAve) were investigated to determine their contribution to the biomechanics of the grafted femurs.
The Union Ratio was also calculated. The Union Ratio measures the graft surface area upon which mineralized callus has formed. If the voxels adjacent to the graft surface are boney callus, the area of that region of the graft is measured and normalized to the total graft surface area. Imaging data (not shown) indicated the bare surface of the graft in blue, with regions of union to the callus depicted as red. Each half (proximal and distal) of the graft was evaluated separately and the lesser ratio of union area to total graft surface area was given as the Union Ratio for that specimen. Callus formation that bridged from host-to-host over the graft was determined by evaluating serial axial cross sections from micro-CT images and given a binary result. These samples were then mechanically tested in torsion. Yield torque (TYield), ultimate torque (TUlt), torsional rigidity (TR), toughness (or work to failure) and the twist at ultimate torque were determined for each specimen. Finally, the mode of failure for each specimen was determined using an x-ray image analysis (not shown).

[2] = system: non-union tibial fracture; experiment: Union Area from clinical CT of a patient with non-union tibial fracture; assay type: in vivo, human; settings: one patient, after 4 months of teriparatide treatment
From the text: We used our custom MATLAB software to contour the segment of bone on one side of the fracture site similarly to contouring around the murine graft. The surface area forming union to the other side of the fracture was then estimated by the software. […] FIG. 12 illustrates clinical x-rays of an anonymous patient's fractured tibia before and after 4 months of teriparatide therapy, 160 and 165, respectively and CT scan data of the patient before and after 4 months of teriparatide therapy, 170 and 175, respectively; and Union Area, shown in grey in 170 and 175, of the patient before and after 4 months of teriparatide therapy, 180 and 185, respectively. The effects of teriparatide on fracture healing were quantified as a 2.8 fold increase in Union Area.

femoral allograft = experiment: Mouse femoral allograft, torsion testing of grafted femurs (Example 1); assay type: in vivo, C57B1/6 mice
Method: Femoral allograft surgeries were performed on C57B1/6 mice as previously described. Briefly, a 4 mm mid-diaphyseal segment was removed by osteotomizing the femur and a processed allograft was implanted and secured in place with a stainless steel intramedullary (IM) pin. After 1 week, 8 mice were given daily subcutaneously injections of 0.4 mg/kg PTH (1-34) (Forteo, Eli Lilly and Company, Indianapolis, Ind.) while 5 mice with grafts were given the same volume of saline daily, serving as controls. Animals were sacrificed 6 weeks after surgery, the grafted femurs were carefully dissected and cleaned without disrupting the callus, and the IM pin was carefully removed. The femurs were then stored frozen at −80° C. until evaluation. After imaging, the ends of the femurs were cemented into 6.35 mm square aluminum tubes using PMMA in a custom jig to ensure axial alignment and maintain a gage length of 7.3±0.8 mm. Samples were then mounted on an EnduraTec TestBench™ system with a 200 N·mm torque cell (Bose Corp., Minnetonka, Minn.) and tested in torsion at a rate of […] until failure to determine the torsional stiffness, ultimate torque, ultimate rotation, and strain energy to failure. Mode of Failure was determined by x-ray after testing. As described previously (Reynolds D G, et al; J. Biomech. 2007; E-pub May 22) the mode of failure can be categorized by location of the failure. “Pre-union” failures occur at the graft-host junction resulting in an intact graft that simply pulled out from the callus. “Early union” failures occur near the graft-host junction, but involve partial fragmentation of the graft or host bone.

grafted femurs = experiment: Histology of grafted femurs (Example 4); assay type: in vivo, mice
Method: A second cohort of 16 animals underwent the same surgery with sacrifice of 8 animals at 4 weeks and 8 animals at 6 weeks post-surgery to evaluate the degree of vascularization of the graft and callus region using vascular profusion as described previously (Duvall 2004). Half of the animals were treated with PTH, and the other half with saline. After micro-CT imaging for vascular analysis, specimens were processed for histology. Mid-sagittal sections were stained with alcian blue, hematoxylin, eosin and orange G. Micro-CT images were manually resliced using NIH ImageJ software in the same plane as the histology sections to compare the imaging modalities (data not shown).

[3] = 0.4 mg/kg PTH (1-34) s.c. daily, 6 weeks after surgery, Mean (Standard Deviation)
[4] = of 8 PTH treated mice, all 5 controls pre-union

`CC[C@H](C)[C@H](NC(=O)[C@H](CCC(=O)O)NC(=O)[C@H](CO)NC(=O)[C@@H](NC(=O)[C@@H](N)CO)C(C)C)C(=O)N[C@@H](CCC(N)=O)C(=O)N[C@@H](CC(C)C)C(=O)N[C@@H](CCSC)C(=O)N[C@@H](Cc1cnc[nH]1)C(=O)N[C@@H](CC(N)=O)C(=O)N[C@@H](CC(C)C)C(=O)NCC(=O)N[C@@H](CCCCN)C(=O)N[C@@H](Cc1cnc[nH]1)C(=O)N[C@@H](CC(C)C)C(=O)N[C@@H](CC(N)=O)C(=O)N[C@@H](CO)C(=O)N[C@@H](CCSC)C(=O)N[C@@H](CCC(=O)O)C(=O)N[C@@H](CCCN=C(N)N)C(=O)N[C@H](C(=O)N[C@@H](CCC(=O)O)C(=O)N[C@@H](Cc1c[nH]c2ccccc12)C(=O)N[C@@H](CC(C)C)C(=O)N[C@@H](CCCN=C(N)N)C(=O)N[C@@H](CCCCN)C(=O)N[C@@H](CCCCN)C(=O)N[C@@H](CC(C)C)C(=O)N[C@@H](CCC(N)=O)C(=O)N[C@@H](CC(=O)O)C(=O)N[C@H](C(=O)N[C@@H](Cc1cnc[nH]1)C(=O)N[C@@H](CC(N)=O)C(=O)N[C@@H](Cc1ccccc1)C(=O)O)C(C)C)C(C)C` [PTH, PTH (1-34)] was tested, and the “torsional mechanics of intact contralateral femurs” value ([1]; 6 weeks of PTH treatment) was “did not show a significant increase in torsional mechanics”, the TR ([1]; PTH Contra, 6 weeks, mean) was 1284 N*mm^2/Rad and the Tult ([1]; PTH Contra, 6 weeks, mean) was 22.6 N*mm. For the same molecule, the “Twist at Tult” value ([1]; PTH Contra, 6 weeks, mean) was 0.029 Rad/mm, the Tyield ([1]; PTH Contra, 6 weeks, mean) was 15.1 N*mm and the “Work to TUlt” value ([1]; PTH Contra, 6 weeks, mean) was 0.401 Nmm*Rad/mm. For the same molecule, the “Work to TYield” value ([1]; PTH Contra, 6 weeks, mean) was 0.151 Nmm*Rad/mm, the “increase in mineralized Union Area” value [2] was 2.8 fold and the Energy to failure (femoral allograft; [3]) was 0.25 (0.31). For the same molecule, the “Normalized Rotation at TUlt” value (femoral allograft; [3]) was 0.97 (0.23) deg/mm gage length, the “Ultimate Torque” value (femoral allograft; [3]) was 13.5 (4.7) N*mm and the “normalized rotation at peak torque” value (femoral allograft; 6 weeks) was 0.97 degrees per mm of gage length. For the same molecule, the “stiffness as share of normal unoperated femur properties” value (femoral allograft; after 6 weeks of healing) was ~120%, the “strength as share of normal unoperated femur properties” value (femoral allograft; after 6 weeks of healing) was ~67% and the “specimens failing in "early union" mode” value (femoral allograft; [4]) was 2. For the same molecule, the “specimens with "mature union" failure” value (femoral allograft; [4]) was 1, the “enhancement in ultimate torque” value (femoral allograft; vs saline, 6 weeks) was 1.65 fold and the “stiffness relative to saline (times stiffer)” value (femoral allograft; vs saline, 6 weeks) was 3.3 times. The osteoclastic graft resorption (grafted femurs; PTH treatment for 6 weeks) was “did not stimulate osteoclastic graft resorption” and the “cartilage formation at the site of bone injury” value (grafted femurs; persisted through 4 weeks after surgery) was “Cartilage formation was increased”.
